In assay [1] the target is T1, Aryl hydrocarbon receptor (Homo sapiens, UniProt P35869).
T1 sequence (P35869 whole entry): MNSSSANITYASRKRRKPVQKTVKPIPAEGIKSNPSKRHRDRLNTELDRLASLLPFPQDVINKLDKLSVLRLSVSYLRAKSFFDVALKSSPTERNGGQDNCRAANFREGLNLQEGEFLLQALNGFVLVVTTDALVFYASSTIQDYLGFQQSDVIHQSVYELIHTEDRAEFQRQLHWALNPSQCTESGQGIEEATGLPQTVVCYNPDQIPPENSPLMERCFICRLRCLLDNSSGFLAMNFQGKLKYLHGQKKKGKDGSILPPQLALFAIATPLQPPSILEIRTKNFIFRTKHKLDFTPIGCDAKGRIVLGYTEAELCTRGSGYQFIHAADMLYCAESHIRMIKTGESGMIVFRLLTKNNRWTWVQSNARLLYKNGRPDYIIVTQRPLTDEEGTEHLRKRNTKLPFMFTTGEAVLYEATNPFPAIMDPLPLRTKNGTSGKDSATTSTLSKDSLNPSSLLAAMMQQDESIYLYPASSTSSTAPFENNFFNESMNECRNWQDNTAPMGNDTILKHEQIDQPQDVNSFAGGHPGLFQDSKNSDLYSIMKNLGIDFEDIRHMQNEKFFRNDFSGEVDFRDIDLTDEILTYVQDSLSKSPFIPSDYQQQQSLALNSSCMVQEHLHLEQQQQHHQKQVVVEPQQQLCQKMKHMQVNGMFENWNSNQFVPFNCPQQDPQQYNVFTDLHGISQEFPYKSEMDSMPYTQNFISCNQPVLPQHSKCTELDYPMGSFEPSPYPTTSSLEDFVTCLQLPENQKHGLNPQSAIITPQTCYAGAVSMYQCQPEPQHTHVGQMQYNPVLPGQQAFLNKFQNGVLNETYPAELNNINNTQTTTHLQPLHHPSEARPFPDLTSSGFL
Put plainly: Luminescence-based cell-based high throughput dose response assay for activators of the Aryl Hydrocarbon Receptor (AHR). [Related pubchem assays: 2796 (Primary screen (AHR activators in singlicate)), 2845 (Confirmation screen (AHR activators in triplicate)), 434939 (Counterscreen (PXR activators in triplicate)), 2804 (Summary (AHR activators))]. Format: ADME.

Assay [2] deals with Streptococcus sp. 'group A'. Put plainly: growth inhibition of control SK(-) GAS strain, dose response, counter-screen for streptokinase expression inhibitor project, luminescence, kanamycin, BacTiterGlo, confirmation (AID 1900). Format: functional, organism-based.
For a further assay, the target named is T2, Streptokinase A (Streptococcus pyogenes serotype M1, UniProt P10520).
T2 sequence (P10520 whole entry): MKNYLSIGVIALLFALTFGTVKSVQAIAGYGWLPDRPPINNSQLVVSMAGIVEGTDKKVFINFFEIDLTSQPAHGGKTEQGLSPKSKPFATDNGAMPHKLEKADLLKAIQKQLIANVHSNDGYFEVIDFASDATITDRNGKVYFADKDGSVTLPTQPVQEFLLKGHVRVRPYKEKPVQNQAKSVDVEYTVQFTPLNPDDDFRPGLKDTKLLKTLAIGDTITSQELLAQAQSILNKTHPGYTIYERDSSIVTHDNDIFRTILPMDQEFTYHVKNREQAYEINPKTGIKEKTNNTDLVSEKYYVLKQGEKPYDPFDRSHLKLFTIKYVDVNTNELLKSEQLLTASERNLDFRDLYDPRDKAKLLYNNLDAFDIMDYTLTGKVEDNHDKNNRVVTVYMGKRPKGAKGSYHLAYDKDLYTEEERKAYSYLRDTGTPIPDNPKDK
Description: S. pyogenes streptokinase expression inhibitors, potency, dose response, plasminogen activation absorbance, OD405 (AID 1914).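 Note: secreted streptokinase activity via plasminogen activation per viability signal from cell pellet.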 It is filed as functional, Streptococcus pyogenes M1 GAS.

The target of assay [3] is T3, Mannose-6-phosphate isomerase (Homo sapiens, UniProt P34949).
T3 sequence (P34949 whole entry): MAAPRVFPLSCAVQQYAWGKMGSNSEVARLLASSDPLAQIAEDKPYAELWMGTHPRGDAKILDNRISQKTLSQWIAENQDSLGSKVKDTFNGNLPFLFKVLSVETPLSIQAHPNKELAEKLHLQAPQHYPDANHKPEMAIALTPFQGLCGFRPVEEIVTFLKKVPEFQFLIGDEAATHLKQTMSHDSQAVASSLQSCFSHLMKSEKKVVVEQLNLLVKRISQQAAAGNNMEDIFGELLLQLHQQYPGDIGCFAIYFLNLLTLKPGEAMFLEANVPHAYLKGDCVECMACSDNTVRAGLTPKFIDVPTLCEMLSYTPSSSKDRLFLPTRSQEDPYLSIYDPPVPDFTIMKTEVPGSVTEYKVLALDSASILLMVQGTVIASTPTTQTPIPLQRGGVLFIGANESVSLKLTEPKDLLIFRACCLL
Description: inhibitors of human PMI, primary screen, biochemical, fluorescence intensity, coupled assay (AID 1209).

In the next assay the test system is Streptococcus. Put plainly: Group A Streptococcus viability loss, dose response, counter-screen for streptokinase expression inhibitor project, luminescence, BacTiterGlo (AID 1915).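 Note: potency for reduction of bacterial viability or growth.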 It is filed as functional, organism-based. (Counterscreens check selectivity or assay interference.)
For assay [4], the target named is T3, Mannose-6-phosphate isomerase. Description: human PMI inhibitors, high substrate, primary screen, biochemical, fluorescence intensity, high mannose 6-phosphate (AID 1220).
The nature of assay [5]: HeLa 2N DNA content increase, dose response, cell-based, IC50 (AID 1117349). Format: functional.
Assay [6] in a line: Concentration-dependent survival of SW480 colon cancer line, luminescence detection with CellTiter-Glo, half-maximal inhibitory concentration (AID 1117338). Format: functional. Background: In ATP-based viability assays light output follows the ATP content of the culture.
Assay [7] is described as follows: RKO cell viability reduction, dose response, CellTiter-Glo luminescence (AID 1117322). Format: functional.
A short description of assay [8]: cytotoxicity toward HCT116 cells – cell-based, CellTiter-Glo luminescence, IC50, dose response (AID 1117332). It is filed as functional. The following applies: HCT-116.
Assay [9] in a line: cytotoxicity toward Colo320 cells – cell-based, CellTiter-Glo luminescence, IC50, dose response (AID 1117334). Format: functional. The note with it: COLO 320.
Assay [10] in a line: HeLa 4N DNA content increase, dose response, cell-based, IC50 (AID 1117351). It is filed as functional.
The nature of assay [11]: cytotoxicity toward HT-29 cells – cell-based, CellTiter-Glo luminescence, IC50, dose response (AID 1117330). Format: functional.
Assay [12] in a line: CellTiter-Glo luminescent dose response of DLD-1 viability loss (AID 1117352). It is filed as functional.
Assay [13] in a line: HCT116 cell viability decrease, GSK3B pretreatment – CellTiter-Glo, IC50, dose response (AID 1117339). The following applies: HCT-116. Format: functional.
Assay [14] can be described thus: P. falciparum Dd2 growth inhibitors, dose response, SYBR Green, dry powder samples, set 9 (AID 1159568). It is filed as functional, cell-based.
Assay [15] in a line: THP-1 cell cytotoxicity, dose response, cytotoxicity control for Vif-APOBEC3G degradation inhibitor project, THP-1 cells (AID 1117359). It is filed as functional. The following applies: Human immunodeficiency virus 1, THP-1.

Activity calls are given as the source filed them. Some results are limits rather than exact numbers.

In the case of `Cc1nnc(N2C(=O)c3cccc4c([N+](=O)[O-])ccc(c34)C2=O)s1`, the EC50 (commonly the concentration that produces a half-maximal response) in [1] is 733 nM (active).
On to `Cc1ccc(/N=C/c2cccc(O)c2O)c(C)c1`, for which the EC50 in assay [2] is > 150 µM (not active); at Streptokinase A, > 150 µM (not active); in the assay on Streptococcus, 7.41 µM (active). In addition, the IC50 (in general, the concentration at which inhibition is half-maximal) in assay [3] was 23.3 µM (active); in assay [4] it was 14 µM (active).
`COc1cc(NCc2ccc3nc(N)nc(N)c3c2C)cc(OC)c1OC`: the IC50 is > 10 µM (inactive) in [5]; 59.1 nM (active) in assay [6]; 2.72 nM (active) in assay [7]; 23.1 nM (active) in [8]; 386 nM (active) in assay [9]; > 10 µM (inactive) in [10]. The results for the IC50 in assay [11], in [12] and in [13] were 21.2 nM (active), 195 nM (active) and 3.92 nM (active), respectively.
Turning to `CCc1csc(N2[C@H](CO)[C@H](c3ccccc3)[C@@H]2CNC)n1`, in assay [14], the AC50 (in general, the concentration at which the activity in the assay is half-maximal) was 7.33 µM (active).
Still for that read-out and setting: next, `C[C@H](CO)N1C[C@H](C)[C@H](CN(C)S(=O)(=O)c2ccc(F)cc2)OCCCC[C@H](C)Oc2ccc(N(C)C)cc2C1=O`: 5.45 µM (active).
With `Cc1cc(Nc2ccc(Br)cc2)n2nc(C)nc2n1`, the EC50 in assay [1] was 117 nM (active). Further, the CC50 (in general, the concentration giving 50% cytotoxicity) in [15] is > 40 µM (active).

(Values after ChEMBL document CHEMBL1201862, “PubChem BioAssay data set” (2004).)
